Experiment: xn = mol fraction of the nth substance listed
Settings: 100 kPa

CC[n+]1ccn(C)c1.O=S(=O)([N-]S(=O)(=O)C(F)(F)F)C(F)(F)F + CC[n+]1ccn(C)c1.F[B-](F)(F)F
Settings	electrical conductivity [S/m]	viscosity [mPa·s]
243.15 K, x1 = 0.2	0.039	–
243.15 K, x1 = 0.3	0.043	–
243.15 K, x1 = 0.4	0.033	–
243.15 K, x1 = 0.5	0.038	–
243.15 K, x1 = 0.6	0.023	–
243.15 K, x1 = 0.7	0.046	–
243.15 K, x1 = 0.8	0.028	–
243.15 K, x1 = 1	0.011	–
248.15 K, x1 = 0.2	0.062	–
248.15 K, x1 = 0.3	0.068	–
248.15 K, x1 = 0.4	0.053	–
248.15 K, x1 = 0.5	0.06	–
248.15 K, x1 = 0.6	0.039	–
248.15 K, x1 = 0.7	0.072	–
248.15 K, x1 = 0.8	0.045	–
248.15 K, x1 = 1	0.019	–
253.15 K, x1 = 0.2	0.094	478
253.15 K, x1 = 0.3	0.102	485
253.15 K, x1 = 0.4	0.081	468
253.15 K, x1 = 0.5	0.09	460
253.15 K, x1 = 0.6	0.061	–
253.15 K, x1 = 0.7	0.107	435
253.15 K, x1 = 0.8	0.069	403
253.15 K, x1 = 1	0.031	350
258.15 K, x1 = 0.2	0.136	–
258.15 K, x1 = 0.3	0.146	–
258.15 K, x1 = 0.4	0.118	–
258.15 K, x1 = 0.5	0.13	–
258.15 K, x1 = 0.6	0.091	–
258.15 K, x1 = 0.7	0.152	–
258.15 K, x1 = 0.8	0.099	–
258.15 K, x1 = 1	0.047	–
263.15 K, x1 = 0.2	0.19	226
263.15 K, x1 = 0.3	0.202	229
263.15 K, x1 = 0.4	0.166	222
263.15 K, x1 = 0.5	0.18	220
263.15 K, x1 = 0.6	0.131	–
263.15 K, x1 = 0.7	0.208	208
263.15 K, x1 = 0.8	0.138	193
263.15 K, x1 = 1	0.07	173
268.15 K, x1 = 0.2	0.255	–
268.15 K, x1 = 0.3	0.27	–
268.15 K, x1 = 0.4	0.226	–
268.15 K, x1 = 0.5	0.242	–
268.15 K, x1 = 0.6	0.18	–
268.15 K, x1 = 0.7	0.276	–
268.15 K, x1 = 0.8	0.186	–
268.15 K, x1 = 1	0.099	–
273.15 K, x1 = 0.2	0.334	122
273.15 K, x1 = 0.3	0.351	124
273.15 K, x1 = 0.4	0.298	120
273.15 K, x1 = 0.5	0.316	120
273.15 K, x1 = 0.6	0.241	–
273.15 K, x1 = 0.7	0.357	114
273.15 K, x1 = 0.8	0.243	105
273.15 K, x1 = 1	0.135	96.5
278.15 K, x1 = 0.2	0.427	–
278.15 K, x1 = 0.3	0.445	–
278.15 K, x1 = 0.4	0.383	–
278.15 K, x1 = 0.5	0.403	–
278.15 K, x1 = 0.6	0.314	–
278.15 K, x1 = 0.7	0.452	–
278.15 K, x1 = 0.8	0.31	–
278.15 K, x1 = 1	0.179	–
283.15 K, x1 = 0.2	0.533	72.6
283.15 K, x1 = 0.3	0.553	74
283.15 K, x1 = 0.4	0.481	72.4
283.15 K, x1 = 0.5	0.503	72.1
283.15 K, x1 = 0.6	0.4	–
283.15 K, x1 = 0.7	0.559	69.1
283.15 K, x1 = 0.8	0.388	63.8
283.15 K, x1 = 1	0.232	59.3
288.15 K, x1 = 0.2	0.654	–
288.15 K, x1 = 0.3	0.674	–
288.15 K, x1 = 0.4	0.594	–
288.15 K, x1 = 0.5	0.617	–
288.15 K, x1 = 0.6	0.499	–
288.15 K, x1 = 0.7	0.68	–
288.15 K, x1 = 0.8	0.475	–
288.15 K, x1 = 1	0.294	–
293.15 K, x1 = 0.2	0.79	46.7
293.15 K, x1 = 0.3	0.81	47.9
293.15 K, x1 = 0.4	0.721	47
293.15 K, x1 = 0.5	0.744	47
293.15 K, x1 = 0.6	0.612	–
293.15 K, x1 = 0.7	0.815	45.3
293.15 K, x1 = 0.8	0.574	41.7
293.15 K, x1 = 1	0.365	39.2
298.15 K, x1 = 0.2	0.939	–
298.15 K, x1 = 0.3	0.958	–
298.15 K, x1 = 0.4	0.862	–
298.15 K, x1 = 0.5	0.885	–
298.15 K, x1 = 0.6	0.738	–
298.15 K, x1 = 0.7	0.963	–
298.15 K, x1 = 0.8	0.682	–
298.15 K, x1 = 1	0.447	–
303.15 K, x1 = 0.2	–	32
303.15 K, x1 = 0.3	–	33
303.15 K, x1 = 0.4	–	32.5
303.15 K, x1 = 0.5	–	32.5
303.15 K, x1 = 0.7	–	31.5
303.15 K, x1 = 0.8	–	29
303.15 K, x1 = 1	–	27.4
313.15 K, x1 = 0.2	–	23
313.15 K, x1 = 0.3	–	23.9
313.15 K, x1 = 0.4	–	23.6
313.15 K, x1 = 0.5	–	23.6
313.15 K, x1 = 0.7	–	23
313.15 K, x1 = 0.8	–	21.1
313.15 K, x1 = 1	–	20.1
323.15 K, x1 = 0.2	–	17.3
323.15 K, x1 = 0.3	–	18
323.15 K, x1 = 0.4	–	17.8
323.15 K, x1 = 0.5	–	17.8
323.15 K, x1 = 0.7	–	17.5
323.15 K, x1 = 0.8	–	16
323.15 K, x1 = 1	–	15.3
333.15 K, x1 = 0.2	–	13.4
333.15 K, x1 = 0.3	–	14.1
333.15 K, x1 = 0.4	–	13.9
333.15 K, x1 = 0.5	–	13.9
333.15 K, x1 = 0.7	–	13.8
333.15 K, x1 = 0.8	–	12.6
333.15 K, x1 = 1	–	12.1

From the CheMixHub ionic liquid set
